In experiment [1] the test system is MAPK phosphorylation in PANC-1 pancreatic cancer cell line. Nature of the experiment: MAPK cell-based phosphorylation assay (cell-direct ELISA, EGF-stimulated). Conditions: Homo sapiens. As for the experimental part: Cell lines: Tumor-derived pancreatic cancer cell lines PANC-1 were purchased from ATCC and were maintained according to ATCC recommendation.
Method: Cells were plated at 7500 cells/well density in 96-wells plate, starved over night, and the small molecules to be tested were added to the cells in the final concentration of 30 μM with 0.3% DMSO for 6 hours incubation at 37° C. For IC50 value determination, serial dilutions of compounds were added to cells under the same conditions. Next, cells were stimulated with 1.5 ng/ml EGF for 15 min. followed by cell fixation with 4% Formaldehyde in PBS at RT for 20 min. Phosphorylation level of MAPK was determined by Cell-direct ELISA.
Cell-direct ELISA: For each well, cells were permeabilized with PBS-Triton 0.1%, quenched with H2O2 0.6% in PBS-Triton 0.1%, and probed with anti-phospho-MAPK antibodies (R&D Systems) followed by HRP-conjugated secondary antibody (Jackson Immunoresearch, West Grove, Pa.). Next, a solution 50 μM of the fluorescent substrate AmpliFlu Red (Sigma) was added and incubated at RT for 20 min. At the end of the incubation time, fluorescence was measured at 595 nm on a microplate reader (AF2200; Eppendorf, Inc., Hamburg, Germany).
(In general: In an ELISA, binding on a coated surface is turned into a signal by an enzyme label.)

For experiment [2], the target named is KRas G12D mutant protein (Homo sapiens (Human), UniProt P01116, G12D). Put plainly: Ras GTP binding domain inhibition assay. Conditions: 20 μM compound; read-out: % Inhibition at 20 μM, KRas G12D. As for the experimental part:
The following method was developed as specific assay for KRas G12D mutant protein.
(§1) Buffer-I: • 50 mM Tris, pH 7.5 • 150 mM NaCl (optional) • 1 mM MgCl2 • 1 mM DTT. • KRas G12D mutant protein was expressed as a His-tagged protein. Purified His-KRas G12D protein was diluted in buffer-I to a final concentration of 3-10 μg/ml. • 200 μl of the diluted His-KRas G12D protein was added to a nickel coated 96 well plate and incubated overnight at 4° C. • The next day, wells were washed 3× in 200 μl of Buffer-I. • Then 200 μl of Buffer-I were added to each well in the presence of 1% DMSO. • Tested compounds were added to the protein-coated wells at a concentration of 20 μM, and incubated for 3 hours at room temperature. While performing IC50 measurements a serial dilution of all tested concentrations was prepared.
(§2) Then 22 μl of Cy3-GTP or Cy5-GTP was added to each well. The labeled GTP was incubated for 45 min. at room temperature. • Following GTP incubation, wells were washed 3× in Buffer-I, and 200 μl of Buffer-I were added to each well. • Following washes, the amount of bound labeled-GTP was measured with an Eppendorf AF2200 plate reader.

Experiment [3] addresses KRas wild type (Homo sapiens (Human), UniProt P01116). Put plainly: Ras GTP binding domain inhibition assay. Conditions: 20 μM compound. As for the experimental part:
as §1, §2
(§3) By substituting KRas G12D mutant protein with KRas G12C mutant, KRas wild type, KRas Q61H mutant, KRas G12D/Q61H double mutant or KRas G12C/Q61H double mutant under the assay conditions described above, KRas G12C mutant KRas wild type, KRas Q61H mutant, KRas G12D/Q61H double mutant and KRas G12C/Q61H double mutant inhibition, respectively, were each determined.

For experiment [4], the target named is KRas G12C mutant (Homo sapiens (Human), UniProt P01116, G12C). Put plainly: Ras GTP binding domain inhibition assay. Conditions: 20 μM compound. As for the experimental part: as §1, §2, §3
Chain of KRas G12C mutant (P01116-2 other isoform, or with tags, fused parts or gaps G12C): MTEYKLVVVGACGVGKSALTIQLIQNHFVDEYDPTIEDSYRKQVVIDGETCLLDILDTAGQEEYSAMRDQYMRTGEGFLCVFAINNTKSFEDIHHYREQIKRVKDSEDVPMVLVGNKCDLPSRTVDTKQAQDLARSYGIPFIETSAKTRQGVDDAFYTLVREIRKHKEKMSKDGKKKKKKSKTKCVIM
Experiment [5] has as its target KRas G12D/Q61H double mutant (Homo sapiens (Human), UniProt P01116, G12D/Q61H). Put plainly: Ras GTP binding domain inhibition assay. To be noted: 20 μM compound; read-out: % Inhibition at 20 μM, KRas G12D Q61H. As for the experimental part:
as §1, §2, §3

For experiment [6], the target named is KRas Q61H mutant (Homo sapiens (Human), UniProt P01116, Q61H). Put plainly: Ras GTP binding domain inhibition assay. Conditions: 20 μM compound. As for the experimental part: as §1, §2, §3
Chain of KRas Q61H mutant (P01116-2 other isoform, or with tags, fused parts or gaps Q61H): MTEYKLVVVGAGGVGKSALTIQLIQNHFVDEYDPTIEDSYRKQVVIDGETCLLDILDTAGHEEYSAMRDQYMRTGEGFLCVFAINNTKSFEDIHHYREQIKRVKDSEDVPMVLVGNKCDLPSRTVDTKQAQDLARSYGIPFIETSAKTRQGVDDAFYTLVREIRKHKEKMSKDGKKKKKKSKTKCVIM
For experiment [7], the target named is KRas G12C/Q61H double mutant (Homo sapiens (Human), UniProt P01116, G12C/Q61H). Put plainly: Ras GTP binding domain inhibition assay. To be noted: 20 μM compound. As for the experimental part:
as §1, §2, §3

The values below come from patent US11541041B1, “Compounds that interact with the Ras superfamily for the treatment of cancers, inflammatory diseases, Rasopathies, and fibrotic disease” (Shy Therapeutics LLC, priority 2017, dated 2023).

The term inhibition denotes the drop in the measured response relative to a control, in per cent.

Chain of KRas G12D/Q61H double mutant (P01116-2 other isoform, or with tags, fused parts or gaps G12D/Q61H): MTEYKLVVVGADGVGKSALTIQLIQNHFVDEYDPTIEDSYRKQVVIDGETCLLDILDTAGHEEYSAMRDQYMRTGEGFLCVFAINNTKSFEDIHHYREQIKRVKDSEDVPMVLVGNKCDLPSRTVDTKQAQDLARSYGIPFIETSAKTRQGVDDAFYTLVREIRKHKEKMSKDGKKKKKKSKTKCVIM
Chain of KRas G12C/Q61H double mutant (P01116-2 other isoform, or with tags, fused parts or gaps G12C/Q61H): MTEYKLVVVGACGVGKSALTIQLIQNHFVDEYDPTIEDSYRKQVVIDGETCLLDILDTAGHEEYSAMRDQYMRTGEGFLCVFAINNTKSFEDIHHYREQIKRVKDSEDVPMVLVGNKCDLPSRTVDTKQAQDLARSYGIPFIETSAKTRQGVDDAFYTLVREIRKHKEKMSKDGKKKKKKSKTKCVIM
Chain of KRas wild type (P01116-2 other isoform, or with tags, fused parts or gaps): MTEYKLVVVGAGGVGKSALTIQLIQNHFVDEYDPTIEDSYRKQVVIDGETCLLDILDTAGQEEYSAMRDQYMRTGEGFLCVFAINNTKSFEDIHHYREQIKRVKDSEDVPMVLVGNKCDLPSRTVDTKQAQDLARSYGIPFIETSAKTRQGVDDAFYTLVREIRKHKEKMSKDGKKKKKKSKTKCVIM
Chain of KRas G12D mutant protein (P01116-2 other isoform, or with tags, fused parts or gaps G12D): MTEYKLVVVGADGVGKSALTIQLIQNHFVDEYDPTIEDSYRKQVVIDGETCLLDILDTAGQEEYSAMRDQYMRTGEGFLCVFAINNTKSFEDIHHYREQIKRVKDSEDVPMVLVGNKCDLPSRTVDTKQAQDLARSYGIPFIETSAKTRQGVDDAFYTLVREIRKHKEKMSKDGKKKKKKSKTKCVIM

Take `O=C(CCc1c[nH]c2ccccc12)Nc1nnc(-c2cccnc2)[nH]1`: the inhibition at 30 µM in experiment [1] lay in the range of 25 to 50%.
On the same count and under the same terms, to `O=C(Nc1nnc(-c2ccccc2)[nH]1)C1CCCC1` belongs 1 to 25%.
Still for that read-out and setting: for `O=C(Nc1nnc(-c2ccccc2)[nH]1)c1ncoc1-c1cccs1` the value was 25 to 50%.
Consider `Oc1nc(-c2ccccn2)nc2c(-c3ccccc3)csc12`, for which the inhibition at 10 µM in experiment [1] (* = tested at 10 μM) is 25 to 50%.
For `O=C(CCCc1cccnc1)N1CCCc2c(O)nc(C3C=CC=CN3)nc21` (stereo not shown), the inhibition at 20 µM lay within 51 to 75% in experiment [2], 25 to 50% in experiment [3], 51 to 75% in experiment [4] and 51 to 75% in experiment [5].
On to `COC(=O)c1c(C)sc2c(O)nc(-c3ccccn3)nc12`, for which, in experiment [6], the “% Inhibition at 20 μM, KRas Q61H” value is given as “D (D = 76-100% inhibition)”.
Turning to `Nc1nc(-c2ccccn2)nc2c(C3CC3)csc12`, the inhibition at 20 µM was 51 to 75% in experiment [2]; 25 to 50% in experiment [3]; 1 to 25% in experiment [7]; 25 to 50% in experiment [4]; 25 to 50% in experiment [6]; 25 to 50% in experiment [5].
Turning to `Nc1nc(-c2ccccn2)nc2c(CC3CNC3)csc12`, the inhibition at 20 µM in experiment [7] was in the range of 51 to 75%; in experiment [6], 51 to 75%; in experiment [5], 25 to 50%.
On to `Cc1nc(-c2nccn2C)nc2sc(-c3ccccc3)c(-c3ccccc3)c12`, for which the inhibition at 20 µM in experiment [7], in experiment [6] and in experiment [5] was 1 to 25% in each case.
Regarding `Cc1nc(-c2cn(C)cn2)nc2sc(-c3ccc(CNC(=O)OC(C)(C)C)cc3)c(-c3ccccc3)c12`, the inhibition at 20 µM in experiment [7], in experiment [6] and in experiment [5] was 1 to 25% each time.
Consider `COCCNc1nc(-c2nccn2C)nc2sc(-c3ccccc3)c(-c3ccccc3)c12` [drawing 3568], for which, in experiment [3], the “% Inhibition at 20 μM, KRas wild type” value is recorded as “A (A = 1-25% inhibition)”. Also, the inhibition at 20 µM in experiment [7] and in experiment [6] was 51 to 75% in each case. In addition, the “% Inhibition at 20 μM, KRas G12C” value in experiment [4] was “C (C = 51-75% inhibition)”.
